In patent publication US10526316B2, “Quinoxaline and pyridopyrazine derivatives as PI3Kβ inhibitors” (Janssen Pharmaceutica NV, priority 2015, dated 2020):
Read-outs that look alike come from different tables or passages of the source.

Key:
[1] = tested on: Akt phosphorylated at Thr308 in PC-3 cells; assay: Cellular assay: phosphorylation of Akt at Thr308 in PC-3 cells (MSD ELISA); type: cell-based; details: read-out: IC50 pAkt_Thr308
How it was run: (§1)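 After lysis of treated cells (60 min, 37° C, 0.3% DMSO), phospho-Akt levels were measured by MSD electrochemiluminescence ELISA. Potency was derived from concentration-response curves fitted over five concentrations.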

PI3Kδ = target: T1, PI3Kδ (Homo sapiens, UniProt O00329); assay: Enzyme binding assay (KINOMEscan, DiscoveRx); details: PIK3Cδ_h
T1 construct: purchased DiscoveRx Corporation, San Diego (contract service, KINOMEscan)
T1 sequence (O00329 1-1044): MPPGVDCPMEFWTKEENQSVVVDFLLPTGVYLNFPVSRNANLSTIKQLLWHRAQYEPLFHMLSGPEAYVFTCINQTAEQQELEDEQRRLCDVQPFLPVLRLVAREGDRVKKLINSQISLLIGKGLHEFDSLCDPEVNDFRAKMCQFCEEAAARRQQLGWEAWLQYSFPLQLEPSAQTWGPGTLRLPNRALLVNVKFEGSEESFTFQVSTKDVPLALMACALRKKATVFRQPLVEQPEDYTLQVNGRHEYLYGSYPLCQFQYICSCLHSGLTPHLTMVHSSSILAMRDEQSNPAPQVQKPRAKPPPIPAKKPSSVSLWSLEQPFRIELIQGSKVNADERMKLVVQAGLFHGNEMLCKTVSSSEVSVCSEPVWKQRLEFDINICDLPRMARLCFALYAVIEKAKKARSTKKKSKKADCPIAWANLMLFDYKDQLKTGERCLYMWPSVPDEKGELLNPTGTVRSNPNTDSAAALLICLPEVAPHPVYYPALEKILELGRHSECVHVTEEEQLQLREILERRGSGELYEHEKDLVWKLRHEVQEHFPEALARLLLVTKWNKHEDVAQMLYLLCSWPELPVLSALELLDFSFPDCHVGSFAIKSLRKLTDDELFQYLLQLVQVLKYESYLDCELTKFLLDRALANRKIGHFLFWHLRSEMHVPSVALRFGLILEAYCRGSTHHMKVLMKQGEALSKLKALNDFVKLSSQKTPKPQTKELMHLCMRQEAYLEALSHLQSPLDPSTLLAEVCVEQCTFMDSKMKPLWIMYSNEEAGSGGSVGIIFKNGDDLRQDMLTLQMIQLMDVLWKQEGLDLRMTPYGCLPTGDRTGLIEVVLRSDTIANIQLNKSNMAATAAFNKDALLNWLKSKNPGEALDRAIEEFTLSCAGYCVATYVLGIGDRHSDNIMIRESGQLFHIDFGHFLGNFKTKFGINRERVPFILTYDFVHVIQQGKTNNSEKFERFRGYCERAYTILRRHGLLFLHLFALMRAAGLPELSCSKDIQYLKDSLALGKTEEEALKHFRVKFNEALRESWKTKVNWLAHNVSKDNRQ
How it was run: (§2)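 Compounds were profiled by KINOMEscan to obtain kinase binding affinities.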

kinase enzymes [2] = target: T2, kinase enzymes (Homo sapiens, UniProt P42336); assay: Enzyme binding assay (KINOMEscan, DiscoveRx), further kinases of Table A; details: PIK3Cα_h
T2 construct: purchased DiscoveRx Corporation, San Diego (contract service, KINOMEscan)
T2 sequence (P42336 whole entry): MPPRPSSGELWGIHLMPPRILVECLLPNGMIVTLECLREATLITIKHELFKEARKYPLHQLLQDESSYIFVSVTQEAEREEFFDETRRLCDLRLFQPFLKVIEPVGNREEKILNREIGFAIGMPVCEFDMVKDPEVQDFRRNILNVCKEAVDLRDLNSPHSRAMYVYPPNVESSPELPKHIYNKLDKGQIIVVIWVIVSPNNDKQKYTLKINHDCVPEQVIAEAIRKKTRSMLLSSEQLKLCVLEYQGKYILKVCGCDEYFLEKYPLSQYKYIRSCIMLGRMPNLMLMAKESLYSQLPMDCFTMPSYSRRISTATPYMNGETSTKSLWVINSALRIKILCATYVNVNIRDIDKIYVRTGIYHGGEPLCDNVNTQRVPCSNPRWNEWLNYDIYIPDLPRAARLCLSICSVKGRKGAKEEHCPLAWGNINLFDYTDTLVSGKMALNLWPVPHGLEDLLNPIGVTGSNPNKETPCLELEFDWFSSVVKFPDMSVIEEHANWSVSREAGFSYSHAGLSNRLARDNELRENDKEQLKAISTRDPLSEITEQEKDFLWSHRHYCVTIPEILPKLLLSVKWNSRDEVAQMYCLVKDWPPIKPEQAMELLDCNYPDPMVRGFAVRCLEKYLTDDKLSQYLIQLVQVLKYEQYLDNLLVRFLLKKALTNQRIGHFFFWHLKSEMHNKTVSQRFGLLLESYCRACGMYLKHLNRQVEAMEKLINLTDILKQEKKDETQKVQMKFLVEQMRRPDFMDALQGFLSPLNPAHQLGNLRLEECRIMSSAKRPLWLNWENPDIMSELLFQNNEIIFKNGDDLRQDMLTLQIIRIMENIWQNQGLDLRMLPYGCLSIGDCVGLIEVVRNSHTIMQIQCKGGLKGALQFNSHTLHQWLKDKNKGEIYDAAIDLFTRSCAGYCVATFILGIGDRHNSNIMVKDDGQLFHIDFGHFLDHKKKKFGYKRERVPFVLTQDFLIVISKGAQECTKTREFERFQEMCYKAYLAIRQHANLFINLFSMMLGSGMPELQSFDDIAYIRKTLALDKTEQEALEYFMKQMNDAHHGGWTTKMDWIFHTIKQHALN
How it was run: as §2

kinase enzymes [3] = target: T3, kinase enzymes (Homo sapiens, UniProt P42345); assay: as above; details: MTOR_h
T3 construct: purchased DiscoveRx Corporation, San Diego (contract service, KINOMEscan)
How it was run: as §2

kinase enzymes [4] = target: T4, kinase enzymes (Homo sapiens, UniProt P48736); assay: as above; details: PIK3Cγ_h
T4 construct: purchased DiscoveRx Corporation, San Diego (contract service, KINOMEscan)
T4 sequence (P48736 whole entry): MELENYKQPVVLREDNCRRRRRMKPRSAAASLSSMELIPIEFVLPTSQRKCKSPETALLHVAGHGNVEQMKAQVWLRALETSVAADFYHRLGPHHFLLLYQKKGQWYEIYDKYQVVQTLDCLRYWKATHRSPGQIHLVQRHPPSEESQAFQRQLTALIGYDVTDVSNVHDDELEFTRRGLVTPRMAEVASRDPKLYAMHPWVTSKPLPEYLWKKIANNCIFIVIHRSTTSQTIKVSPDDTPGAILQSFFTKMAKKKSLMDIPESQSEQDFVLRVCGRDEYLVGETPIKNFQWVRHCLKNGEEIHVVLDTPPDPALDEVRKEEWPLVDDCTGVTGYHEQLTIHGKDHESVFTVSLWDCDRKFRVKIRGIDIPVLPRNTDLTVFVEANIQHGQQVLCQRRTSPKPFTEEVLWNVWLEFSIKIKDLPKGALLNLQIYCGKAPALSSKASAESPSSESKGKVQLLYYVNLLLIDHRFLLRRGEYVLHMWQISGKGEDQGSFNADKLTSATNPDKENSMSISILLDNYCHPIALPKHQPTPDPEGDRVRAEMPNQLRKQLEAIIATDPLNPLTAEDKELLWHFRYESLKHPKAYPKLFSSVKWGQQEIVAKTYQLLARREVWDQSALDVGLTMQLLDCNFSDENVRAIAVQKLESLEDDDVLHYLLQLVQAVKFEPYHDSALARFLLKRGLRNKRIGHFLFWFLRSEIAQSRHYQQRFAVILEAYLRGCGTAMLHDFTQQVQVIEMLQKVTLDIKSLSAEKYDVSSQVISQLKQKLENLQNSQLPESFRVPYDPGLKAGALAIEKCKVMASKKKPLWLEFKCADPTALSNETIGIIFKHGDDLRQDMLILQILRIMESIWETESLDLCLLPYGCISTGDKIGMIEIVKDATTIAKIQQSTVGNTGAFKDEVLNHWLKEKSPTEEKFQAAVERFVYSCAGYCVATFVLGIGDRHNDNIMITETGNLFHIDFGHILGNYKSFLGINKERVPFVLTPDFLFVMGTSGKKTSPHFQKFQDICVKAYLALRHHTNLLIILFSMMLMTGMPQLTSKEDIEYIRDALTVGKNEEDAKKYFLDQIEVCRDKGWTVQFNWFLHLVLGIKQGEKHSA
How it was run: as §2

PI3Kβ = target: T5, PI3Kβ (Homo sapiens, UniProt P42338); assay: Enzyme binding assay (KINOMEscan, DiscoveRx); details: PIK3Cβ_h, read-out: Kd PIK3Cβ_h
T5 construct: purchased DiscoveRx Corporation, San Diego (contract service, KINOMEscan)
T5 sequence (P42338 whole entry): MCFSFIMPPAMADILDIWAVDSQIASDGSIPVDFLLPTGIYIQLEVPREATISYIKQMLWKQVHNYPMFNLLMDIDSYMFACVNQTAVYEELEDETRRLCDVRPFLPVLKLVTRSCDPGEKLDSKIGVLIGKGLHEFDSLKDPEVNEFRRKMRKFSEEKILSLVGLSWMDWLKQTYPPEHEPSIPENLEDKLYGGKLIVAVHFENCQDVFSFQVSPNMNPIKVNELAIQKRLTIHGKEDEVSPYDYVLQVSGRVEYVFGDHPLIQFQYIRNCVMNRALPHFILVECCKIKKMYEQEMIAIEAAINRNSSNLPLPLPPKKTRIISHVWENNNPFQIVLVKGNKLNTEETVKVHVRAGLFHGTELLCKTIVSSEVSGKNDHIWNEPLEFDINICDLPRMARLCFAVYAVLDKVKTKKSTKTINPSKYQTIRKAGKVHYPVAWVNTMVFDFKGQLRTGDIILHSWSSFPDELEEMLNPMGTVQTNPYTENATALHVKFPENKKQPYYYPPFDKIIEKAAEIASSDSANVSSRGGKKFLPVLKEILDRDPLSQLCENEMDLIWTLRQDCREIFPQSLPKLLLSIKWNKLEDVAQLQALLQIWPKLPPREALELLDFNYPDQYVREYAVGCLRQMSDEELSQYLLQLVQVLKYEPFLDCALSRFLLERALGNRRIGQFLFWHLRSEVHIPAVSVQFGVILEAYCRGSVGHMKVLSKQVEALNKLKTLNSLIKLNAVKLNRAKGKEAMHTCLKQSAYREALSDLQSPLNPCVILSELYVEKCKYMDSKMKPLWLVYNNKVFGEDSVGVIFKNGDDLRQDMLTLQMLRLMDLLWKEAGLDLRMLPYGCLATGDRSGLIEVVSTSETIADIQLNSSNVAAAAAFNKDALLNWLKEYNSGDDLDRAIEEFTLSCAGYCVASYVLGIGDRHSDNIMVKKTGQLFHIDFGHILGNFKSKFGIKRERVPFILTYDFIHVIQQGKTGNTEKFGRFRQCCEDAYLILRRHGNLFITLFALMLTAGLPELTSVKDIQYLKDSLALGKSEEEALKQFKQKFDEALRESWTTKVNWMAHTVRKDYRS
How it was run: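 Compounds are profiled for binding to the kinase using KINOMEscan. The affinity is then reported as an inhibitor Kd in nanomolar units.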

[5] = tested on: Akt phosphorylated at Ser473 in PC-3 cells; assay: Cellular assay: phosphorylation of Akt at Ser473 in PC-3 cells (MSD ELISA); type: cell-based; details: read-out: IC50 pAkt_S473
How it was run: as §1

[6] = Homo sapiens, PC-3, 1 h, PC-3 cells, 60 min compound incubation, MSD ELISA
[7] = PC-3 cells, 60 min compound incubation, MSD ELISA

SMILES	IC50 [1, 6] [nM]	Kd (PI3Kδ) [nM]	Kd (kinase enzymes [2]) [nM]	Kd (kinase enzymes [3]) [nM]	Kd (kinase enzymes [4]) [nM]	melting point [°C]	Kd (PI3Kβ) [nM]	IC50 [5, 6] [nM]	IC50 [1, 7] [nM]	IC50 [5, 7] [nM]	IC50 ([1]; Homo sapiens, PC-3, 1 h) [nM]	IC50 ([5]; Homo sapiens, PC-3, 1 h) [nM]
C[C@H](Nc1cc(C(=O)N(C)C)cc2ncc(N3CCOCC3)nc12)c1ccc(F)cc1 [Compound 401]	> 513	12300	1860	11500	> 30200	80	550	> 513				
CC(C)NCCNC(=O)c1cc(C(C)Nc2cccc(F)c2)c2nc(N3CCOCC3)cnc2c1 (stereo not drawn) [Compound 226]	13	275	2570	28800	5620	158	1	20				
CNCCNC(=O)c1cc([C@@H](C)Oc2cccc(F)c2)c2nc(N3CCOCC3)cnc2c1 [Compound 122a]		660	3700	14100	7970	116	3		9	12		
Cc1cc(C)cc(NC(C)c2cc(C(=O)N3CCOCC3)cc3ncc(N4CCOCC4)nc23)c1 (stereo not drawn) [Compound 126]	275	1290	6920	> 30200	> 30200	80	13	427				
COC(=O)c1cc(C(C)Oc2ccc(F)c(F)c2)c2nc(N3CCOCC3)cnc2c1 (stereo not drawn) [Compound 209]	> 513	11500	> 30200	> 30200	17000	183	316	> 513				
CC(Nc1ccc(F)c(F)c1)c1cc(C(=O)NCCN(C)C)cc2ncc(N3CCOCC3)nc12 (stereo not drawn) [Compound 281]	15	91	3160	> 30200	3550	80	0.3	15				
COCCNC(=O)c1cc(C(C)Nc2cc(F)cc(F)c2)c2nc(N3CCOCC3)cnc2c1 (single isomer, unassigned) [Compound 203]		912	1660	21400	6610	118	5		44	98		
C[C@H](Nc1cccc(F)c1)c1cc(C(=O)NCCO)cc2ncc(N3CCOCC3)nc12 [Compound 118]	> 513	10200	14200		2850	237	204	> 513				
CC(Nc1cc(F)cc(F)c1)c1cc(C(=O)NCCN(C)C)cc2ncc(N3CCOCC3)nc12 (stereo not drawn) [Compound 183]	3		2510		1740	145	0.1	6				
Cc1c(F)cccc1NCc1cc(C(=O)NCCN(C)C)cc2ncc(N3CCOCC3)nc12 [Compound 328]	9					98		9				
C[C@H](Nc1cc(F)cc(F)c1)c1cc(C(=O)NCCN(C)C)cc2ncc(N3CCOCC3)nc12 [Compound 185]	148		5750		4270	152	29	~331				
CNCCN(C)C(=O)c1cc(C2CCCN2c2cc(F)cc(F)c2)c2nc(N3CCOCC3)cnc2c1 (stereo not drawn) [Compound 18]		1				80	0.1				0.3	1
CC(Nc1cccc(F)c1)c1cc(C(=O)N2CCC[C@H]2CO)cc2ncc(N3CCOCC3)nc12 (single isomer, unassigned) [Compound 115]		324	1660	> 30200		327	2		31	66		
C[C@@H](Nc1cc(F)cc(F)c1)c1cc(C(=O)NCCN(C)C)cc2ncc(N3CCOCC3)nc12 [Compound 184]	2		599	18900	994	157	0.2	2				
CC(c1cc(CO)cc2ncc(N3CCOCC3)nc12)N(C)c1cccc(F)c1 (stereo not drawn) [Compound 111]	162	1820	6030		1480	80	16	389				
CC(C)NCCNC(=O)c1cc(C(C)Nc2cc(F)c(F)c(F)c2)c2nc(N3CCOCC3)cnc2c1 (single isomer, unassigned) [Compound 283b]		18200	> 30200	> 30200	29500	170	1380					
CN(C)C(=O)c1cc(C2CCCN2c2cc(F)cc(F)c2)c2nc(N3CCOCC3)cnc2c1 (stereo not drawn) [Compound 26]	~1.35	117	174		1320	80	2	4				
COC(=O)c1cc(C(C)Nc2ccc(C)c(F)c2)c2nc(N3CCOCC3)cnc2c1 (stereo not drawn) [Compound 293]		> 30200	> 30200	> 30200	> 30200	186	> 30200					
CCOC(=O)CNC(=O)c1cc(C(C)Nc2cccc(F)c2)c2nc(N3CCOCC3)cnc2c1 (stereo not drawn) [Compound 392a]		2820	3980	20400	14100	80	21					
